Measured values published in patent publication US20200038397A1, “PHARMACOTHERAPY FOR PREVENTING OR TREATING GLAUCOMA” (KOWA COMPANY, LTD., priority 2014, published 2020).

System: white rabbit
Experiment: intraocular pressure-lowering effect of single and combined eye drop administration in white rabbits
Format: in vivo
Conditions: for IOP: intraocular pressure, 0 h: initial intraocular pressure immediately before application; for IOP: intraocular pressure, 0 h / IOP: intraocular pressure, 0.5 h / IOP: intraocular pressure, 1 h: n = 10, Compound 1 0.4% 50 μL, brimonidine 0.1% 50 μL; for IOP: intraocular pressure, 0.5 h: 0.5 h after application; for IOP: intraocular pressure, 1 h: 1 h after application
Experimental: To investigate the usefulness of the combination of (S)-(−)-1-(4-fluoro-5-isoquinolinesulfonyl)-2-methyl-1,4-homopiperazine (Compound 1) and an α2 agonist, intraocular pressure-lowering effect was compared between the case where each drug was singly administered to an experimental animal and the case where the drugs were administered to an experimental animal in combination.
(S)-(−)-1-(4-fluoro-5-isoquinolinesulfonyl)-2-methyl-1,4-homopiperazine hydrochloride dihydrate was dissolved in physiological saline, and the solution was then neutralized (pH 6.0) with addition of sodium dihydrogen phosphate and sodium hydroxide to prepare a solution of Compound 1 at a desired concentration.
Commercially available brimonidine (Senju Pharmaceutical Co., Ltd., AIPHAGAN eye drop 0.1%) was directly used.
The intraocular pressure-lowering effect of combined administration of Compound 1 and brimonidine was investigated. As controls, the intraocular pressure-lowering effect of single administration of Compound 1 and that of single administration of brimonidine were further investigated.
Solution of Compound 1: 0.4% solution (amount of application: 50 μL)
Brimonidine: 0.1% eye drop (amount of application: 50 μL)
Experimental animal: white rabbit (sex: male, 10 rabbits per group)
1) One drop of […] oxybuprocaine hydrochloride eye drop (trade name: Benoxil 0.4% solution) was applied to both eyes of an experimental animal for local anesthesia (data were acquired only from the eye to which the eye drop was applied).
2) The intraocular pressure was measured immediately before administration of a solution of a test compound, and the measurement was used as the initial intraocular pressure.
3) The solution of Compound 1 was applied to one eye of the experimental animal, and subsequently the solution of brimonidine was applied to the same eye.
4) One drop of the 0.4% oxybuprocaine hydrochloride eye drop was applied to each eye for local anesthesia 0.5 hours, 1 hour, 2 hours, 3 hours, 4 hours, and 5 hours after the application of the agents, and the intraocular pressure was then measured.
Compound 1 was singly applied, and a test was performed at the same measurement times as in the combined administration test.
A test was performed using the same method as in the single administration test except that the test solution in the single administration of Compound 1 was replaced with that of brimonidine.
The intraocular pressure was represented as an amount of change from the initial intraocular pressure. For statistical processing, Stat Preclinica Client 1.1 with parametric Tukey's multiple comparison was used.

Row | SMILES | IOP: intraocular pressure, 0 h | IOP: intraocular pressure, 0.5 h | intraocular pressure-lowering action 0.5 hours after application of an eye drop (in words) (0.5 hours after application) | IOP: intraocular pressure, 1 h
1 | Brc1c(NC2=NCCN2)ccc2nccnc12 [Brimonidine, brimonidine] | 24.2 ± 1.3 mmHg | 25.2 ± 0.9 mmHg | no intraocular pressure-lowering action | 19.4 ± 1.2 mmHg
2 | C[C@H]1CNCCCN1S(=O)(=O)c1cccc2cncc(F)c12 [Compound 1, (S)-(−)-1-(4-fluoro-5-isoquinolinesulfonyl)-2-methyl-1,4-homopiperazine] | 26.5 ± 0.8 mmHg | 20.5 ± 1.2 mmHg |  | 15.9 ± 1.0 mmHg
